# Measured values reported in patent US8979831B2 (priority 2008, dated 2015).
# “And” between values parts separate entries of the source, which are not always exact repeats. Equal entries are not always repeated. Where two headings read alike, the source gives them in different places.
# Tests used:
# porcine liver samples = conditions: for Tissue destruction, visual observation: injected alone into porcine liver
# liver parenchyma = system: liver parenchyma; set-up: species or system porcine; conditions: for Final thermocouple pH after five minutes: after NaOH pre-injection
# [1] = 100 microliters alone, 0:00 min
# [2] = 100 microliters alone, 0:15 min
# [3] = 100 microliters alone, 0:30 min
# [4] = 100 microliters alone, 1:00 min
# [5] = 100 microliters alone, 1:15 min
compound,measurement,setting,value
CC(=O)Cl [Acetyl Chloride],Temp,"porcine liver samples; 100 microliters alone, different temp probe, 0:00 min",16.4 C. and 17.1 C. and 17.4 C. and 16.6 C. and 17 C.
same,Temp,"porcine liver samples; 100 microliters alone, different temp probe, 0:30 min",22.5 C. and 32 C. and 39 C. and 42.2 C. and 32.3 C.
same,Temp,"porcine liver samples; 100 microliters alone, different temp probe, 0:45 min",21.5 C. and 27.5 C. and 33.5 C. and 33.9 C. and 27.3 C.
same,Temp,"porcine liver samples; 100 microliters alone, different temp probe, 1:00 min",21 C. and 25 C. and 30.6 C. and 30.7 C. and 25.7 C.
same,Temp,"porcine liver samples; 100 microliters alone, different temp probe, 1:15 min",20.2 C. and 24 C. and 28.4 C. and 27.8 C. and 23.9 C.
same,Temp,"porcine liver samples; 100 microliters alone, different temp probe, 1:30 min",19.6 C. and 23.5 C. and 27 C. and 26.2 C. and 23.1 C.
same,Temp,"porcine liver samples; 100 microliters alone, different temp probe, 1:45 min",19 C. and 22.7 C. and 25.6 C. and 25 C. and 22.3 C.
same,Temp,"porcine liver samples; 100 microliters alone, different temp probe, 2:00 min",18.4 C. and 22.1 C. and 24.7 C. and 24.2 C. and 21.6 C.
same,Temp,"porcine liver samples; 100 microliters alone, different temp probe, 2:15 min",18.3 C. and 21.4 C. and 23.9 C. and 23.2 C. and 21.1 C.
same,Temp,"porcine liver samples; 100 microliters alone, different temp probe, 2:30 min",18.1 C. and 21.1 C. and 23.3 C. and 22.6 C. and 20.6 C.
same,Temp,"porcine liver samples; 100 microliters alone, different temp probe, 2:45 min",18 C. and 20.6 C. and 22.6 C. and 22 C. and 20.2 C.
same,Temp,"porcine liver samples; 100 microliters alone, different temp probe, 3:00 min",17.9 C. and 20.3 C. and 22.1 C. and 21.5 C. and 19.9 C.
same,Temp,"porcine liver samples; 100 microliters alone, different temp probe, 3:15 min",17.8 C. and 20.1 C. and 21.7 C. and 21.1 C. and 19.6 C.
same,Temp,"porcine liver samples; 100 microliters alone, different temp probe, 3:45 min",17.6 C. and 19.5 C. and 21 C. and 20.4 C. and 19.1 C.
same,Temp,"porcine liver samples; 100 microliters alone, different temp probe, 4:00 min",17.5 C. and 19.4 C. and 20.7 C. and 20.1 C. and 18.9 C.
same,Temp,"porcine liver samples; 100 microliters alone, different temp probe, 4:15 min",17.5 C. and 19.2 C. and 20.4 C. and 19.9 C. and 18.9 C.
same,Temp,"porcine liver samples; 100 microliters alone, different temp probe, 4:30 min",17.4 C. and 19 C. and 20.2 C. and 19.6 C. and 18.6 C.
same,Temp,"porcine liver samples; 100 microliters alone, different temp probe, 4:45 min",17.3 C. and 18.8 C. and 20 C. and 19.4 C. and 18.4 C.
same,Temp,"porcine liver samples; 100 microliters alone, different temp probe, 5:00 min",17.3 C. and 18.6 C. and 19.8 C. and 19.2 C. and 18.3 C.
same,pH,porcine liver samples; [1],6.14 and 6.55 and 6.5 and 5.7
same,pH,porcine liver samples; [2],3.1 and 4.67 and 4.62 and 4.82
same,pH,porcine liver samples; [3],2.5 and 3.59 and 3.32 and 4.57
same,Temp,porcine liver samples; [4],27.4 C. and 24.5 C. and 23.4 C. and 22.8 C.
same,Temp,porcine liver samples; [5],26.2 C.
same,"Tissue destruction, visual observation",porcine liver samples,more violent and rapid tissue destruction than Acetic Anhydride
same,Temperature changes,"liver parenchyma; 100, 200, 300 microliters after 100 or 200 microliters of 1M-15M NaOH, 21 injections",7.9-32 degrees Celsius
same,Final thermocouple pH after five minutes,liver parenchyma,more acidic pH
same,Temperature changes in the first thirty seconds after injection,"liver parenchyma; eleven of the twenty-one runs, with NaOH",20-30 degrees Celsius
CC(=O)OC(C)=O [Acetic Anhydride],Recorded temperature changes,porcine liver samples,0.0-2.94 degrees C.
same,Temperature change from baseline,porcine liver samples,≥ 1.0 degree C.
same,pH,porcine liver samples; [1],6.33 and 7.52 and 7.1 and 6.14 and 6.23
same,pH,porcine liver samples; [2],5.2 and 3.75 and 3.34 and 5.7 and 6.03
same,pH,porcine liver samples; [3],5.06 and 3.54 and 3.2 and 5.63 and 6.01
same,pH,"porcine liver samples; 100 microliters alone, 0:45 min",4.9 and 3.43 and 3.11 and 5.54 and 5.92
same,pH,porcine liver samples; [4],4.81 and 3.36 and 3.05 and 5.42 and 5.91
same,pH,porcine liver samples; [5],4.75 and 3.27 and 2.98 and 5.25 and 5.87
same,pH,"porcine liver samples; 100 microliters alone, 2:00 min",4.47 and 3.09 and 2.77 and 4.3 and 5.5
same,pH,"porcine liver samples; 100 microliters alone, 2:15 min",4.4 and 3.03 and 2.75 and 4.23 and 5.3
same,pH,"porcine liver samples; 100 microliters alone, 2:30 min",4.35 and 2.96 and 2.71 and 4.21 and 4.79
same,pH,"porcine liver samples; 100 microliters alone, 2:45 min",4.3 and 2.92 and 2.68 and 4.16 and 4.65
same,pH,"porcine liver samples; 100 microliters alone, 3:00 min",4.25 and 2.9 and 2.65 and 4.12 and 4.57
same,pH,"porcine liver samples; 100 microliters alone, 3:15 min",4.22 and 2.88 and 2.61 and 4.01 and 4.48
same,pH,"porcine liver samples; 100 microliters alone, 3:30 min",4.2 and 2.84 and 2.57 and 4.01 and 4.46
same,pH,"porcine liver samples; 100 microliters alone, 3:45 min",4.16 and 2.81 and 2.54 and 3.97 and 4.4
same,pH,"porcine liver samples; 100 microliters alone, 4:00 min",4.14 and 2.78 and 2.5 and 3.93 and 4.38
same,pH,"porcine liver samples; 100 microliters alone, 4:15 min",4.1 and 2.75 and 2.49 and 3.86 and 4.35
same,pH,"porcine liver samples; 100 microliters alone, 4:30 min",4.09 and 2.74 and 2.46 and 3.84 and 4.32
same,pH,"porcine liver samples; 100 microliters alone, 4:45 min",4.06 and 2.72 and 2.42 and 3.8 and 4.3
same,pH,"porcine liver samples; 100 microliters alone, 5:00 min",4.05 and 2.7 and 2.41 and 3.74 and 4.29
same,pH,"porcine liver samples; 200 microliters alone, 1:00 min",4.91 and 3.36 and 3.21 and 5.41 and 4.80
same,"Changes, pH (lower line)","porcine liver samples; 200 microliters alone, lower line of Changes (fits 0:00 vs 5:00)",1.85 and 2.70 and 3.42 and 2.10 and 2.42
same,Injections producing greater than one degree Celsius temperature change,porcine liver samples; 300 microliters alone,three out of five injections
same,"Tissue destruction, visual observation",porcine liver samples,larger volumes of Acetic Anhydride correlated with greater areas of tissue destruction
same,Recorded temperature change,liver parenchyma,1.4-9.4 degrees C.
same,Final thermocouple pH after five minutes,liver parenchyma,overwhelmingly basic
